US8716273B2, “N-(amino-heteroaryl)-1H-pyrrolopyridine-2-carboxamides derivatives preparation thereof and their use in therapy” (SANOFI, priority 2006, dated 2014)

Tests used:
TRPV1 receptor = biological target: T1, TRPV1 receptor (Rattus norvegicus, UniProt O35433); assay: Test of inhibition of the current induced by capsaicin on the rat DRG (whole-cell patch-clamp); format: cell-based; settings: inhibition of the capsaicin control response, primary culture of neonate rat DRG neurons
T1 construct: The neurons of the DRG express the TRPV1 receptor naturally; endogenous in cells; host or cells: primary culture of neonatal rat dorsal root ganglion neurons
T1 sequence (O35433 whole entry): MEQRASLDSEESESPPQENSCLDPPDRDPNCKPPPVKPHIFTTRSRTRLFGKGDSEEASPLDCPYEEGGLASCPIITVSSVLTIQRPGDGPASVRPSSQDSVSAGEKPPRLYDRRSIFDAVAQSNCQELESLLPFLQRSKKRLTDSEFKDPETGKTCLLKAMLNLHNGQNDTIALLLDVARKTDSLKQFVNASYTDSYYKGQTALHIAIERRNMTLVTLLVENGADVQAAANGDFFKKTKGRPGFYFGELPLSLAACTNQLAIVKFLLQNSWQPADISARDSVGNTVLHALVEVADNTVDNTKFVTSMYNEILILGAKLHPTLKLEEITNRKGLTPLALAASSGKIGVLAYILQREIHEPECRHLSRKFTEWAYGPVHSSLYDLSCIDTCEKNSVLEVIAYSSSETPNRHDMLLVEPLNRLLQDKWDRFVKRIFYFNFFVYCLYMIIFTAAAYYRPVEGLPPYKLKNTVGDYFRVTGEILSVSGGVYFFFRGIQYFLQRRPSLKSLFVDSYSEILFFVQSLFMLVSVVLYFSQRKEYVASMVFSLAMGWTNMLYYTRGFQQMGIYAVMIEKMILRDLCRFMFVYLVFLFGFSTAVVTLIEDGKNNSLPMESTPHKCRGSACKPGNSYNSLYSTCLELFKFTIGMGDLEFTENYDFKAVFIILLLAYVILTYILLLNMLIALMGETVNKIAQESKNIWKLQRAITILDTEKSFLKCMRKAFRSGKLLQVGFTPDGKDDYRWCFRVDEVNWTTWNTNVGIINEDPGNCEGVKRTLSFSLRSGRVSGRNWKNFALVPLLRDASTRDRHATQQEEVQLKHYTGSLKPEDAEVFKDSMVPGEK
Experimental: Test of Inhibition of the Current Induced by Capsaicin on the Rat DRG
Primary Culture of Rat Dorsal Root Ganglion (DRG) Cells:
The neurons of the DRG express the TRPV1 receptor naturally.
Primary cultures of DRG of neonate rats are prepared from 1-day-old rats. Briefly, after dissection, the ganglia are trypsinized and the cells are dissociated mechanically by careful trituration. The cells are resuspended in Eagle's basic culture medium containing 10% of fetal calf serum, 25 mM KCl, 2 mM glutamine, 100 μg/ml gentamicin and 50 ng/ml of NGF, then deposited on glass slides covered with laminin (0.25×10^6 cells per slide), which are then placed in Corning 12-well plates. The cells are incubated at 37° C. in a humidified atmosphere containing 5% CO2 and 95% air. Cytosine β-D-arabinoside (1 μM) is added 48 h after culture set-up, to prevent the development of non-neuronal cells. The slides are transferred to the test chambers for patch-clamp investigations after 7-10 days in culture.
The measuring chambers (volume 800 μl) containing the cellular preparation are placed on the stage of an inverted microscope (Olympus IMT2) fitted with Hoffman optics (Modulation Contrast, New York) and are observed at magnification of 400×. The chambers are continually perfused by gravity (2.5 ml/min) by means of a solution distributor accepting 8 inlets and whose single outlet, comprising a polyethylene tube (inside diameter 500 μm) is positioned at less than 3 mm from the cell under investigation. […] The total currents (membrane potential fixed at −60 mV) were recorded with an Axopatch 1D amplifier (Axon Instruments, Foster City, Calif.), connected to a PC controlled by Pclamp8 software (Axon Instrument). The current traces are recorded on paper and simultaneously digitized (sampling frequency […]) and saved to the hard disk of the PC.
The application of a micromolar solution of capsaicin induces a cationic input current on the DRG cells (voltage fixed at −70 mV). […] The results are expressed as percentage inhibition of the capsaicin control response.

TRPV1 receptors = biological target: T2, TRPV1 receptors (Mus musculus, UniProt Q704Y3); assay: Mouse cornea irritation test (capsaicin-induced eye rubbing); format: in vivo; settings: compound 500 μM, 2 μl local application to the cornea 10 minutes before 2 μl of 160 μM capsaicin, rubbings counted for 2 minutes
T2 construct: from tissue; host or cells: cornea of the living mouse (C-fibre innervation)
T2 sequence (Q704Y3 whole entry): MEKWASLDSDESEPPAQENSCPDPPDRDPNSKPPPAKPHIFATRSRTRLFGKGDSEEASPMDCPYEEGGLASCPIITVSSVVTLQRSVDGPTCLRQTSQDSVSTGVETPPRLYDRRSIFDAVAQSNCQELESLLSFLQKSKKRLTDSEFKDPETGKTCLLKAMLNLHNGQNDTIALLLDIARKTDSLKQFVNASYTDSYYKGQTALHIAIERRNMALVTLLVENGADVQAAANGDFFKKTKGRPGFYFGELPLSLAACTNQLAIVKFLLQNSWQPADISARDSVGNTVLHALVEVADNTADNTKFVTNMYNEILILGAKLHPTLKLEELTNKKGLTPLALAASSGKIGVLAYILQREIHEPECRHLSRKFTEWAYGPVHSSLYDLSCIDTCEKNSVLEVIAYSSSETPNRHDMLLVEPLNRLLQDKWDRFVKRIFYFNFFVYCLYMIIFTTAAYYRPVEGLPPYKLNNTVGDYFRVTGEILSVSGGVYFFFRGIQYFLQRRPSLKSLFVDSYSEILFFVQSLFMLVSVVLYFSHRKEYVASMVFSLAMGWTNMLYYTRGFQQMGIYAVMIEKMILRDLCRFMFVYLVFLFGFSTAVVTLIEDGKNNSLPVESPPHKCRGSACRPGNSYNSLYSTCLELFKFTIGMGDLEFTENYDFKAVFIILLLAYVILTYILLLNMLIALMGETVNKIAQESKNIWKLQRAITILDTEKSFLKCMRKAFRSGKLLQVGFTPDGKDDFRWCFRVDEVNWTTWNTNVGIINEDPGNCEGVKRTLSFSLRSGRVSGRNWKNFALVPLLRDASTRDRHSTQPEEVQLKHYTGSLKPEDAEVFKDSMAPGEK
Experimental: Mouse Cornea Irritation Test
The irritant nature of capsaicin is easily appreciated at the level of the cornea since this organ is one of the most innervated with the C-fibres. In this context, according to preliminary experiments, the application of a very small amount of capsaicin (2 μl at a concentration of 160 μM) to the surface of the cornea of an animal leads to a certain number of stereotypical behaviors associated with irritation, which are easily listed. These include: blinking, rubbing of the instilled eye by the ipsilateral forepaw, rubbing of the face with both forepaws, scratching of the ipsilateral face by the hindpaw. […] Moreover, its appearance is also normal. […] It can be concluded that the duration of action of capsaicin at these doses is less than 2 minutes.
SUMMARY OF THE METHODOLOGY
The principle of the series of tests is to determine whether the compounds of the invention can influence the behavioral response induced by a specified amount of capsaicin. The capsaicin is initially diluted to 25 mM in DMSO and diluted, for final use, in physiological serum with Tween 80 at 10%. It appears, from control studies, that in these conditions the solvent has no effect.
In practice, the test product, prepared at 25 mM in DMSO and diluted for final use in physiological serum with 10% of Tween 80 at the strongest concentration of 500 μM, is administered by local application to the surface of the cornea at a volume of 2 μl, 10 minutes before application of the capsaicin. The animal receives an ocular instillation of 2 μl of a 160 μM capsaicin solution prepared as stated above. For an observation period of 2 minutes following instillation, the number of times the instilled eye is rubbed by the ipsilateral forepaw is counted for each animal.
For a given group, the percentage protection is calculated as follows: P=100−((average number of scratchings of the group treated with the compound/average number of scratchings of the group treated with the solvent)×100)
This percentage protection is averaged for each group of animals (n=number of animals tested with the compound of the invention).

Structure (SMILES)	% P 500 μM (percentage protection) (TRPV1 receptors)	other results
O=C(Nc1ccc(N2CCC2)nc1)c1cc2cc(C(F)(F)F)cnc2n1Cc1cccc(F)c1 [Compound 15, N-[6-(Azetidin-1-yl)pyridin-3-yl]-5-trifluoromethyl-1-(3-fluorobenzyl)-1H-pyrrolo[2,3-b]pyridine-2-carboxamide]		inhibition at 0.01 µM (TRPV1 receptor; DRG neuron, compound at 10 nM, read-out: Percentage inhibition in patch DRG): 100%
Cc1cc(N(C)C)ncc1NC(=O)c1cc2cc(C(F)(F)F)cnc2n1Cc1cccc(F)c1.Cl [Compound 3, N-(6-N,N-Dimethylamino-4-methyl-pyridin-3-yl)-5-trifluoromethyl-1-(3-fluorobenzyl)-1H-pyrrolo[2,3-b]pyridine-2-carboxamide hydrochloride (1:1)]	34%	
O=C(Nc1ccc(N2CCCC2)nc1)c1cc2cc(C(F)(F)F)cnc2n1Cc1cccc(F)c1 [Compound 6, N-[6-(Pyrrolidin-1-yl)pyridin-3-yl]-5-trifluoromethyl-1-(3-fluorobenzyl)-1H-pyrrolo[2,3-b]pyridine-2-carboxamide]	30%	inhibition at 0.001 µM (TRPV1 receptor; DRG neuron, compound at 1 nM, read-out: Percentage inhibition in patch DRG): 71%
O=C(Nc1ccc(N2CCC(F)(F)C2)nc1)c1cc2cc(C(F)(F)F)cnc2n1Cc1cccc(F)c1 [Compound 12, N-[6-(3,3-difluoropyrrolidin-1-yl)pyridin-3-yl]-5-trifluoromethyl-1-(3-fluorobenzyl)-1H-pyrrolo[2,3-b]pyridine-2-carboxamide]	83%	
CN(C)c1ncc(NC(=O)c2cc3cc(C(F)(F)F)cnc3n2Cc2cccc(F)c2)cc1C(F)(F)F.Cl [Compound 4, N-(6-N,N-Dimethylamino-5-trifluoromethyl-pyridin-3-yl)-5-trifluoromethyl-1-(3-fluorobenzyl)-1H-pyrrolo[2,3-b]pyridine-2-carboxamide hydrochloride (1:1)]		Percentage inhibition in patch DRG (TRPV1 receptor; compound at 1 nM): 98% (1 nM)
CNc1ccc(NC(=O)c2cc3cc(C(F)(F)F)cnc3n2Cc2cccc(F)c2)cn1 [Compound 1, N-[(6-Methylamino)pyridin-3-yl]-5-trifluoromethyl-1-(3-fluorobenzyl)-1H-pyrrolo[2,3-b]pyridine-2-carboxamide]	51%	
O=C(Nc1ccc(N2CCCC2)nc1)c1cc2cc(C(F)(F)F)cnc2n1Cc1ccncc1 [Compound 9, N-[6-(Pyrrolidin-1-yl)pyridin-3-yl]-5-trifluoromethyl-1-[(4-pyridyl)methyl]-1H-pyrrolo[2,3-b]pyridine-2-carboxamide]	43%	
